In US20250171428A1, “CRYSTALLINE FORMS OF 6-((5-METHYL-3-(6-METHYLPYRIDIN-3-YL)ISOXAZOL-4- YL)METHOXY)- N -(TETRAHYDRAPYRAN-4-YL)PYRIDAZINE-3-CARBOXAMIDE” (Hoffmann-La Roche Inc., priority 2022, published 2025):

Key:
Format in all cases: physicochemical
[1] = Competing long-term slurry equilibration experiments including Form A and Form B; conditions: competing slurries of Form A and Form B, various solvents, 5° C. to 65° C.; all conditions tested
Experimental: The competing long-term slurry equilibration experiments including Form A and Form B were performed in various solvents in the temperature range from 5° C. to 65° C.

[2] = Transformation of Form 4 at elevated temperature; conditions: temperatures >110° C.
[3] = Slurry of Form 4 in various solvents and solvent/water mixtures; conditions: 20° C. to 60° C.

SMILES	stability of the crystalline form [1]	solid form transformation on heating [2]	solid form transformation in slurry [3]
Cc1ccc(-c2noc(C)c2COc2ccc(C(=O)NC3CCOCC3)nn2)cn1 [Form B, 6-((5-methyl-3-(6-methylpyridin-3-yl)isoxazol-4-yl)methoxy)-N-(tetrahydropyran-4-yl)pyridazine-3-carboxamide]	superior stability	–	–
Cc1ccc(-c2noc(C)c2COc2ccc(C(=O)NC3CCOCC3)nn2)cn1 [Form 4, 6-((5-methyl-3-(6-methylpyridin-3-yl)isoxazol-4-yl)methoxy)-N-(tetrahydropyran-4-yl)pyridazine-3-carboxamide]	–	transform to Form A	transform to Form B
